Two substances from US7456154B2 (priority 2001, dated 2008) can be followed below.

Some results are limits rather than exact numbers.

Series [1] deals with EAMG rats. The series can be described thus: Electromyography: CMAP ratio under repetitive 3 Hz nerve stimulation in EAMG rats. It counts as in vivo, rat. To be noted: for CMAP ratio (5th vs. 1st amplitude): average ± SEM.
The test system of series [2] is AChE-R mRNA. In words: In situ hybridization of AChE-R mRNA in monkey spinal cord neurons. It counts as in vivo, Cynomolgus monkey. As to the method: In situ hybridization: Tissues were fixed in 4% paraformaldehyde and cut into 7 μm paraffin embedded sections. Spinal cord sections were deparaffinized, rehydrated using serial ethanol dilutions and permeabilized with proteinase K (10 μg/ml at room temp.). Slides were exposed to 5′ biotinylated, fully 2′-oxymethylated AChE-R or AChE-S-specific 50-mer cRNA probes complementary to human ACHE pseudo-intron 4 or exon 6, respectively [Grisaru et al. (2001) id ibid.]. Hybridization was performed overnight at 52° C. in hybridization mixture containing 10 μg/ml probe, 50 μg/ml yeast tRNA, 50 μg/ml heparin and 50% formamide in 375 mM Na chloride, 37.5 mM Na citrate, pH 4.5. For monkey sections, the probe was constructed according to the human AChE-R sequence; for rat sections, according to the mouse sequence. Slides were washed to remove non-hybridized probe, blocked with 1% skim milk containing 0.01% Tween-20 and 2 mM levamisole, an alkaline phosphatase inhibitor used to suppress non-specific staining and incubate with streptavidin-alkaline phosphatase (Amersham Pharmacia). Fast Red™ substrate (Roche Diagnostics) was used for detection. DAPI staining (Sigma Chemical Co., St. Louis, Mo., USA) served to visualize nuclei. Microscope images were analyzed with Image Pro Plus 4.0 (Media Cybernetics) software.
This experiment was conducted with six (3 males and 3 females) purpose-bred 15 month-old (young adult) Cynomolgus monkeys, divided in three groups (1, 2 and 3) of one male and one female each. Groups 1 and 2 received hEN101 daily by o.g. for a period of 7 days, at a concentration of 0.15 and 0.50 μg/g/day, respectively. Group 3 received daily i.v. injections of hEN101 for a period of 7 days at a dosage of 0.50 μg/g/day.
Paraffin-embedded 7 μm spinal cord sections were examined by in situ hybridization for the levels of AChE-R and AChE-S mRNA.
AChE-R-positive sections from monkey spinal cords were analyzed for the relation between cell body diameter and percentage of AChE-R positive cells (FIG. 15). Cells were divided into three categories according to their body diameter, and the percentage of AChE-R-positive cells from each category was evaluated. […] Either i.v. or p.o. administration of the higher EN101 concentration (500 μg/kg/day) reduced the percentage of AChE-R-positive neurons, compared to the lower concentration (p<0.05. Student's t test). […] We have yet to discover the functional correlate of cell size that determines the efficacy of antisense suppression of AChE-R expression.

Series [3] concerns AChE. The series can be described thus: Plasma cholinesterase activities in monkeys (Ellman assay, acetylthiocholine hydrolysis). It counts as in vivo, Cynomolgus monkey. As to the method:
In the 12 hr following the second day administration of hEN101, monkey plasma samples were collected and stored. Plasma cholinesterase activities were measured by spectrophotometry assessing the rate of hydrolysis of acetylthiocholine (measured by the Ellman assay, which quantifies the hydrolysis of acetylthiocholine) [Ellman, G. L., et al. (1961). Biochem. Pharmacol. 7, 88-95], in the absence or presence of iso-OMPA (a selective butyrylcholinesterase, BChE, inhibitor). […] When measured in the presence of 1×10^−5M iso-OMPA, AChE activity increased within the 5 hr post-injection.
Background: Ellman's reagent forms a yellow product with free thiols.

Series [4] relates to MG patients. The series can be described thus: Phase Ib clinical trial of oral hEN101 in MG patients (QMG score). It counts as in vivo, human. Conditions: for Decrease in mean total QMG score from baseline: baseline mean total score 13.2. As to the method: Protocol for Phase Ib Clinical Trial of MG patients using hEN101: Patients were hospitalized and pyridostigmine was discontinued for 12-18 hours before EN101 testing. Assessment of MG status was performed first at entry, then after pyridostigmine stoppage, and regularly after EN101 treatment using a Quantitative MG (QMG) score. Escalating oral doses of EN101 (10-150 μg/kg) were given in the first day (day 1) followed by a daily dose of 500 μg/kg for 3 days (days 2-4). Days 5 and 6 were washout period without pyridostigmine, and restitution of pyridostigmine occurred when it became necessary. Patients were monitored for 1 month thereafter, with three visits as out-patients.
The following parameters were used as inclusion criteria: • Class II and above, according to MGFA classification (myasthenia gravis standard clinical classification of the disease severity score); • Age 18-70; • Seropositive for AChR antibodies; • Patients under pyridostigmine (180 mg/day) treatment without concomitant immunosuppressants; • Stable for 3 months, with no PE (plasma exchange) for 6 months; • No other major or active diseases.
Evaluation of the MG status of each patient was based on the following parameters: • (a) QMG scoring (maximum value of 9), based on the measurements of: • Fatigue in each limb (4); • Fatigue of the neck (1); • Swallowing rate (1); • Power in the hands (2); • Respirometry (1). • These measurements were taken daily, 4 times per day, and averaged for days 2-6. • (b) Patient's subjective report; • (c) Vital signs, clinical chemistry, hematology, urinalysis, ECG and physical examination, recorded daily.
16 patients with stable generalized MG requiring constant AChE inhibitors (pyridostigmine) for daily function were recruited, after approval by human ethics committees of the respective hospitals involved in the present trial (Hadassah Medical Center, Jerusalem, Israel and Greater Manchester Neurosciences Center, Hope Hospital, Salford, England).

As for “5′-CTGCGATATTTTCTTGTACC-3′ (chemistry not given here) [rEN101]”, the “Duration of effective CMAP correction” value in series [1] (50 μg/Kg i.v.) is listed as 24 h. The “Duration of CMAP rectification” value in series [1] (500 μg/Kg i.v.) amounted to 72 h. For the same substance, the “Extent of CMAP rectification” value in series [1] (500 μg/Kg i.v.) is “up to 125 % of baseline”. Besides, in series [1] (EAMG rats, FIG. 9B inset), the “Average CMAP ratio in treated animals” value was 107.4±3.8 % of first depolarization. Moreover, in series [1] (doses between 10-500 μg/Kg), the “Duration of restoration of CMAP decline” value is listed as “up to 72 h”. Moreover, the “Time to retrieve stable CMAP ratios” value in series [1] (i.v., doses 10-500 μg/Kg) is ≤ 1 h. The “IC50 of saturable CMAP response (dose response curve)” value in series [1] (i.v., up to 5 h following injection (1 and 5 h)) was < 0.01 mg/kg. The “CMAP ratio (5th vs. 1st amplitude)” value in series [1] (intravenous, EAMG rats, 0 h, 50 μg/Kg) was 0.87 ± 0.01; in series [1] (intravenous, EAMG rats, 1 h, 50 μg/Kg), 1.00 ± 0.01; in series [1] (intravenous, EAMG rats, 5 h, 50 μg/Kg) it was 0.98 ± 0.02; in series [1] (intravenous, EAMG rats, 24 h, 50 μg/Kg), 1.00 ± 0.00; in series [1] (oral, EAMG rats, 0 h, 50 μg/Kg oligonucleotide, 1000 μg/Kg pyridostigmine), 0.84 ± 0.03; in series [1] (oral, EAMG rats, 1 h, 50 μg/Kg oligonucleotide, 1000 μg/Kg pyridostigmine), 0.97 ± 0.02. Also, the “CMAP ratio (5th vs. 1st amplitude)” value is on record as 0.97 ± 0.03 in series [1] (oral, EAMG rats, 5 h, 50 μg/Kg oligonucleotide, 1000 μg/Kg pyridostigmine) and 1.01 ± 0.01 in series [1] (oral, EAMG rats, 24 h, 50 μg/Kg oligonucleotide, 1000 μg/Kg pyridostigmine). Also, the “Effect of oral administration on CMAP decline” value in series [1] (oral gavage, 50 μg/Kg oligonucleotide, 1000 μg/kg pyridostigmine, CMAP 1, 5, 24 h) was “as effective as 25 μg/Kg administered i.v”. Besides, the “CMAP ratio 24 h following single oral administration” value in series [1] (single oral dose, rEN101 50 μg/kg, pyridostigmine 1000 μg/kg) was “no decline was detected”.
Take 5′-CTGCCACGTTCTCCTGCACC-3′ [hEN101]: in series [2] (150 μg/kg/day), the “Percent of small AChE-R-positive cells (<70 μm diameter) vs naive monkeys” value was “caused an increase”. Also, the “Effect on AChE-R labeling of larger neurons (>70 μm)” value in series [2] (150-500 μg/kg/day) is on record as “not discernable effect”. Further, the “AChE-R mRNA in spinal cord” value in series [2] (increasing daily dose from 0.15 (oral) to 0.50 (oral or i.v.) μg/g/day, i.v. more effective) was “significant reduction”. Besides, in series [2] (lower to higher oral dose (150 to 500 μg/kg/day), even further with i.v.), the “Percentage of labeled small (23 to 40 μm) and medium-sized (40 to 70 μm) neurons” value is recorded as “decreased significantly”. In addition, the “Total plasma cholinesterase activity (largely serum BChE)” value in series [3] (12 hr following second day administration, without iso-OMPA) is “generally unchanged”. In addition, in series [3] (in presence of 1×10^−5M iso-OMPA, 500 μg/kg vs 150 μg/kg, more effective i.v.), the “Post-injection increase of plasma AChE activity” value is “effectively suppressed or attenuated”. The “Decrease in mean total QMG score from baseline” value is listed as 3.0 in series [4] (day 2); 4.8 in series [4] (day 3); 5.7 in series [4] (day 4); 5.5 in series [4] (day 5); 6.0 in series [4] (day 6). Further, the “Vital signs, chemical chemistry, hematology, urinalysis, ECG and physical examination” value in series [4] (experimental period and month following discharge) is recorded as “remained unchanged”. Also, the Cholinergic side effects result in series [4] (human, in vivo) is given as “not reported”. In series [4] (human, in vivo), the “Duration of improved scores following the final dose” value was “up to 72 hours”. Moreover, the Serious adverse effects result in series [4] (human, in vivo) is “No serious adverse effects were observed”. For the same substance, in series [4] (oral, 10-150 μg/kg day 1, 500 μg/kg days 2-4), the “Patients with clear symptomatic improvement” value is 15 out of 16.
